Results on one compound are retold here after patent US6869935B2, “Gene Therapy for proliferative vitreoretinopathy” (priority 1996, dated 2005).

SMILES strings stand for the structures. ≈ marks a conversion by molar mass, not a printed value.

For experiment [1], the system named is mixtures of HSV-tk-positive and -negative RDFs. Description: In vitro bystander effect, cocultures of HSV-tk positive and negative cells. It counts as cell-based, rabbit. The following applies: 1 μg/ml ganciclovir; 3 days of incubation; effect depended on percentage of HSV-tk positive cells. Here is the method: To determine the cytotoxic effect of a small number of HSV-tk positive cells on neighboring HSV-tk-negative cells, cocultures of HSV-tk positive cells and HSV-tk-negative cells were performed by mixing these two cells in varying proportions. Briefly, mixtures of HSV-tk-positive and -negative RDFs (2.0×10^4 cells/well) were seeded at various mixing ratios (0, 1.0, 2.5, 5.0, 10, and 100% HSV-tk-positive cells of total cells) in 24-well culture plates (Corning) and incubated at 37° C. in 5% CO2 overnight. Cells were then treated with 1 μg/ml ganciclovir for 3, 5, and 7 days. The number of cells was counted with a Coulter counter (Coulter Electronics, Inc., Hialeah, Fla.).

Experiment [2] relates to HSV-tk negative RDFs. Description: In vitro sensitivity to ganciclovir (XTT assay), HSV-tk negative RDFs. It counts as cell-based, rabbit. The following applies: concentration range 0.001-50 μg/ml. On the procedure:
(§1) The sensitivity of HSV-tk positive RDFs (100% HSV-tk transduced RDFs) and HSV-tk negative RDFs to ganciclovir was determined by using a tetrazolium-based calorimetric assay (XTT assay) (Scudiero et al., Cancer Research, Vol. 48, pgs. 4827-4833 (1988); Roehm et al., J. Immunol. Methods, Vol. 142, pgs. 257-265 (1991)). HSV-tk positive RDFs and HSV-tk negative RDFs were seeded at a density of 5×10^3 cells/well of 96-well culture plates (Corning) and incubated with DMEM-10 at 37° C. in 5% CO2 overnight. Then cells were treated with DMEM-10 containing various concentrations of ganciclovir (GCV; Cytovene; Syntex Inc., Palo Alto, Calif.) or only DMEM-10. After a total of 72 hr incubation, XTT assay was performed using a kit (cell proliferation II; Boehringer Mannheim, Indianapolis, Ind.). The results were read on a microplate reader (MR700; Dynatech Laboratories, Inc., Chantilly, Va.).

The subject of experiment [3] is HSV-tk positive RDFs. Description: In vitro sensitivity to ganciclovir (XTT assay), HSV-tk positive RDFs. The following applies: Oryctolagus cuniculus, 72 hr of incubation, read-out: IC50 (concentration required for 50% cytotoxicity). It counts as cell-based, rabbit. Here is the method: as §1
The subject of experiment [4] is experimental proliferative vitreoretinopathy (HSV-tk positive/negative RDFs). Description: In vivo bystander effect in experimental proliferative vitreoretinopathy. Set-up: species or system pigmented rabbits. Here is the method: The right eye was used from each of 20 pigmented rabbits of both sexes, weighing 2.5 to 3.5 kg each. Vitrectomy was performed in the same manner as described above. One week after vitrectomy, group D (n=7) received an injection into the vitreous cavity of a mixture of 0.25×10^4 homologous HSV-tk positive RDFs (5% of total cells) and 4.75×10^4 homologous HSV-tk negative RDFs (95% of total cells). Group E (n=7) received a mixture of 0.05×10^4 homologous HSV-tk positive RDFs […] HSV-tk negative RDFs (95% of total cells). Group F (n=6) received 5.0×10^4 homologous HSV-tk negative RDFs as a control. All eyes received 200 μg of ganciclovir (0.1 ml of solution dissolved in distilled water) just after the cell injection and on day 4. Indirect ophthalmoscopic examinations were performed in a masked fashion on days 4, 7, 14 and 28. Clinical severity of PVR was graded from 0 to 5 as described above.

For experiment [5], the system named is fibroblasts bearing the HSV-TK gene. The following applies: rabbits; intraocular injection of fibroblasts bearing the HSV-TK gene; cited from earlier work.

For the compound `Nc1nc(O)c2ncn(COC(CO)CO)c2n1` [ganciclovir], in experiment [1], the “Proliferation of co-culturing cells” value is “inhibited proliferation of co-culturing cells”. Moreover, the “Toxicity to HSV-tk negative RDFs” value in experiment [2] was “no significant toxicity”. Further, the IC50 in experiment [3] stood at 0.1 µg/mL (≈ 0.392 µM). The “Retinal detachment (stages 3-5)” value in experiment [4] (group D (5% HSV-tk positive RDFs), 200 μg ganciclovir intravitreal after cell injection and day 4, day 4 and day 7) is given as “no retinal detachment”; in experiment [4] (group D (5% HSV-tk positive RDFs), 200 μg ganciclovir, day 14 and day 28), “No eyes showed retinal detachment”; in experiment [4] (group E (1% HSV-tk positive RDFs), 200 μg ganciclovir, day 4 and day 7), “no retinal detachment”. Further, the “Eyes with retinal detachment (stages 3-5)” value worked out at 14.3% in experiment [4] (group E (1% HSV-tk positive RDFs), 200 μg ganciclovir, day 14 and day 28); 16.7% in experiment [4] (group F (100% HSV-tk negative RDFs), 200 μg ganciclovir, day 4); 50% in experiment [4] (group F (100% HSV-tk negative RDFs), 200 μg ganciclovir, day 7); 66.7% in experiment [4] (group F (100% HSV-tk negative RDFs), 200 μg ganciclovir, day 14 and day 28). Moreover, the “Experimental PVR” value in experiment [5] was “inhibited”.
